# Measurements published in PMC9120017, “Inhibition mechanism of the chloride channel TMEM16A by the pore blocker 1PBC” (Nature Communications, 2022).
# Like-named read-outs stand apart in the source and are kept apart here.
# Biological target: T1, wild-type mouse TMEM16A (Mus musculus, UniProt Q8BHY3)
# T1 construct: expressed in transfected cells; host or cells: HEK293T
# T1 sequence (Q8BHY3 1-960): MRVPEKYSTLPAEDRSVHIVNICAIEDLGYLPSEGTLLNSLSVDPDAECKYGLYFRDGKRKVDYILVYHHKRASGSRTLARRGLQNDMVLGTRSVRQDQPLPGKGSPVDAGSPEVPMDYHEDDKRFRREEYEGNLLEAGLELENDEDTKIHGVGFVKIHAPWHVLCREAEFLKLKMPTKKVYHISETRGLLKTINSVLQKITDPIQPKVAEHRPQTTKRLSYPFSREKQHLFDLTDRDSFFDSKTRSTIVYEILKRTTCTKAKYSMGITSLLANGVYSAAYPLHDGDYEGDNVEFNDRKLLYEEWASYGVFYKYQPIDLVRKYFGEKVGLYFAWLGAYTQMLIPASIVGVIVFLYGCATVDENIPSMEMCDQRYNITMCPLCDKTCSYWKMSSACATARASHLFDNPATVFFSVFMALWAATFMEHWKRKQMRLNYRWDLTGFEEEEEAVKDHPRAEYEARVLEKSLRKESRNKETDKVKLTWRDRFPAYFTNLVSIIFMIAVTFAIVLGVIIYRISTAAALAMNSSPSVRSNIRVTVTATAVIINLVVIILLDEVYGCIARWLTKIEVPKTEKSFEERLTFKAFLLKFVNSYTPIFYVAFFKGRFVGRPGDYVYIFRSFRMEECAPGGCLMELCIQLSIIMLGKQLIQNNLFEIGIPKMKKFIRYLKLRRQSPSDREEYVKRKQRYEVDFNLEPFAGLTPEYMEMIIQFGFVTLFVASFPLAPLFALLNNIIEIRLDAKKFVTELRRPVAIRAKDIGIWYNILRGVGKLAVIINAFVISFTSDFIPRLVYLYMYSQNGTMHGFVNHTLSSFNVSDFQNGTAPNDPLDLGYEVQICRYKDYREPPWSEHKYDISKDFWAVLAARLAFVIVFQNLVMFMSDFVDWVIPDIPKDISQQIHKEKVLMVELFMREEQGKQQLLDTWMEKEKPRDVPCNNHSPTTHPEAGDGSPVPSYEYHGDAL
# Assay: Inside-out patch recording of 1PBC block, wild-type TMEM16A
# Format: cell-based
# Conditions: for remaining activity at 1 µM / remaining activity at 3 µM: read-out: I/Imax
# Description: HEK293T cells (ATCC CRL-1573) were maintained in Dulbecco’s modified Eagle’s medium (DMEM; Sigma-Aldrich) supplemented with 10 U ml^−1 penicillin, 0.1 mg ml^−1 streptomycin (Sigma-Aldrich), 2 mM L-glutamine (Sigma-Aldrich), and 10% FBS (Sigma-Aldrich) in a humidified atmosphere containing 5% CO2 at 37 °C. HEK293S GnTI^− cells (ATCC CRL-3022) were maintained in HyClone HyCell TransFx-H medium (GE Healthcare) supplemented with 10 U ml^−1 penicillin, 0.1 mg ml^−1 streptomycin, 4 mM L-glutamine, 0.15% poloxamer 188 (Sigma-Aldrich), and 1% FBS in an atmosphere containing 5% CO2 at 185 rpm at 37 °C. The ac splice variant of mouse TMEM16A (UniProt ID: Q8BHY3), mouse TMEM16B (UniProt ID: Q8CFW1), or mouse TMEM16F (UniProt ID: Q6P9J9) bearing a 3C cleavage site, a Venus YFP, a Myc tag, and a Streptavidin-binding peptide (SBP) downstream of the open reading frame in a modified pcDNA3.1 vector (Invitrogen) were used as described previously[21],[31]. Mutations were introduced using a modified QuikChange method[58] and were verified by sequencing.
# HEK293T cells were transfected with 3–4 μg DNA per 6 cm Petri dish using the calcium phosphate co-precipitation method and were used within 24–96 h after transfection. Recordings were performed on inside-out patches excised from HEK293T cells expressing the construct of interest. Patch pipettes were pulled from borosilicate glass capillaries (O.D. 1.5 mm, I.D. 0.86 mm, Sutter Instrument) and were fire-polished with a microforge (Narishige) before use. Pipette resistance was typically 3–8 MΩ when filled with the recording solutions detailed below. Seal resistance was typically 4 GΩ or higher. Voltage-clamp recordings were made using Axopatch 200B, Digidata 1550, and Clampex 10.7 (Molecular Devices). Analog signals were filtered with the in-built 4-pole Bessel filter at 10 kHz and were digitized at 20 kHz. Solution exchange was achieved using a gravity-fed system through a theta glass pipette mounted on an ultra-fast piezo-driven stepper (Siskiyou). […] All recordings were performed at 20 °C.
# A symmetrical ionic condition was used throughout. Stock solution with Ca^2+-EGTA contained 150 mM NaCl, 5.99 mM Ca(OH)2, 5 mM EGTA, and 10 mM HEPES at pH 7.40. Stock solution with EGTA contained 150 mM NaCl, 5 mM EGTA, and 10 mM HEPES at pH 7.40. Free Ca^2+ concentrations were adjusted by mixing the stock solutions at the required ratios calculated using the WEBMAXC program (http://web.stanford.edu/~cpatton/webmaxcS.htm). Patch pipettes were filled with the stock solution with Ca^2+-EGTA, which has a free Ca^2+ concentration of 1 mM. 1PBC (ChemBridge) stock was reconstituted in anhydrous DMSO (Sigma-Aldrich) at 100 mM and stored at −20 °C. Working solutions with 1PBC were prepared by serial dilution. Unless otherwise stated, experiments were performed at a saturating Ca^2+ concentration as shown in Supplementary Table 1 and the primary data were corrected for current rundown as described previously[21],[25].
# Concentration-response relations, obtained from the ratio of the I-V plots before and after the application of the blocker, were fitted to the Hill equation,1 I/Imax=1/1+IC50/[blocker]^h where I/Imax is the normalized current responses, IC50 defines the concentration at which inhibition is at its half-maximum, and h is the Hill coefficient.
smiles,measurement,setting,value
N#Cc1c(C(F)(F)F)cc(O)n2c1nc1ccccc12 [1PBC],Hill coefficient for 1PBC block,,1
same,IC50,"0 mV, 2 µM Ca2+",4.4 µM
same,IC50,"0.4 μM Ca2+, 80 mV, empirical Hill fit of data scaled to open probability",3.2 µM
same,IC50,"0.8 μM Ca2+, 80 mV, empirical Hill fit of data scaled to open probability",2.13 µM
same,Steady-state current (normalized),"1 µM 1PBC, 0 mV, 2 µM Ca2+",0.001783
same,remaining activity at 1 µM,"1 µM 1PBC, 0 mV, 2 µM Ca2+",73%
same,I/Imax scaled to open probability,"1 µM 1PBC, 400 nM Ca2+, 80 mV",0.3757
same,I/Imax scaled to open probability,"1 µM 1PBC, 800 nM Ca2+, 80 mV",0.4419
same,I/Imax scaled to open probability,"1 µM 1PBC, 2 µM Ca2+, 80 mV",0.5218
same,Steady-state current (normalized),"1 µM 1PBC, 20 mV, 2 µM Ca2+",0.134
same,remaining activity at 1 µM,"1 µM 1PBC, 20 mV, 2 µM Ca2+",68.9%
same,Steady-state current (normalized),"1 µM 1PBC, 40 mV, 2 µM Ca2+",0.2463
same,remaining activity at 1 µM,"1 µM 1PBC, 40 mV, 2 µM Ca2+",65.3%
same,Steady-state current (normalized),"1 µM 1PBC, 60 mV, 2 µM Ca2+",0.3454
same,remaining activity at 1 µM,"1 µM 1PBC, 60 mV, 2 µM Ca2+",62.6%
same,Steady-state current (normalized),"1 µM 1PBC, 80 mV, 2 µM Ca2+",0.4256
same,remaining activity at 1 µM,"1 µM 1PBC, 80 mV, 2 µM Ca2+",60.1%
same,Steady-state current (normalized),"1 µM 1PBC, 100 mV, 2 µM Ca2+",0.5103
same,remaining activity at 1 µM,"1 µM 1PBC, 100 mV, 2 µM Ca2+",60.1%
same,Steady-state current (normalized),"1 µM 1PBC, 120 mV, 2 µM Ca2+",0.5951
same,remaining activity at 1 µM,"1 µM 1PBC, 120 mV, 2 µM Ca2+",61.1%
same,Steady-state current (normalized),"1 µM 1PBC, 140 mV, 2 µM Ca2+",0.7035
same,remaining activity at 1 µM,"1 µM 1PBC, 140 mV, 2 µM Ca2+",64.7%
same,Steady-state current (normalized),"1 µM 1PBC, -20 mV, 2 µM Ca2+",-0.1486
same,remaining activity at 1 µM,"1 µM 1PBC, -20 mV, 2 µM Ca2+",77.2%
same,Steady-state current (normalized),"1 µM 1PBC, -40 mV, 2 µM Ca2+",-0.3126
same,remaining activity at 1 µM,"1 µM 1PBC, -40 mV, 2 µM Ca2+",80.5%
same,Steady-state current (normalized),"1 µM 1PBC, -60 mV, 2 µM Ca2+",-0.4807
same,remaining activity at 1 µM,"1 µM 1PBC, -60 mV, 2 µM Ca2+",83%
same,Steady-state current (normalized),"1 µM 1PBC, -80 mV, 2 µM Ca2+",-0.661
same,remaining activity at 1 µM,"1 µM 1PBC, -80 mV, 2 µM Ca2+",86.1%
same,Steady-state current (normalized),"1 µM 1PBC, -100 mV, 2 µM Ca2+",-0.836
same,remaining activity at 1 µM,"1 µM 1PBC, -100 mV, 2 µM Ca2+",88%
same,Steady-state current (normalized),"1 µM 1PBC, -120 mV, 2 µM Ca2+",-1.004
same,remaining activity at 1 µM,"1 µM 1PBC, -120 mV, 2 µM Ca2+",89.7%
same,Steady-state current (normalized),"1 µM 1PBC, -140 mV, 2 µM Ca2+",-1.145
same,remaining activity at 1 µM,"1 µM 1PBC, -140 mV, 2 µM Ca2+",89.1%
same,IC50,"2 μM Ca2+, 80 mV, empirical Hill fit of data scaled to open probability",1.94 µM
same,Steady-state current (normalized),"3 µM 1PBC, 0 mV, 2 µM Ca2+",0.001316
same,remaining activity at 3 µM,"3 µM 1PBC, 0 mV, 2 µM Ca2+",53.9%
same,I/Imax scaled to open probability,"3 µM 1PBC, 400 nM Ca2+, 80 mV",0.2553
same,I/Imax scaled to open probability,"3 µM 1PBC, 800 nM Ca2+, 80 mV",0.2864
same,I/Imax scaled to open probability,"3 µM 1PBC, 2 µM Ca2+, 80 mV",0.3306
same,Steady-state current (normalized),"3 µM 1PBC, 20 mV, 2 µM Ca2+",0.0952
same,remaining activity at 3 µM,"3 µM 1PBC, 20 mV, 2 µM Ca2+",48.9%
same,Steady-state current (normalized),"3 µM 1PBC, 40 mV, 2 µM Ca2+",0.1678
same,remaining activity at 3 µM,"3 µM 1PBC, 40 mV, 2 µM Ca2+",44.5%
